Results taken from patent publication US20130109580A1, “High-Affinity Peptide Probes for Tumor Biomarker, GRP-78, and Screening Method Thereof” (ATOMIC ENERGY CONCIL-INSTITUTE OF NUCLEAR ENERGY RESEARCH, priority 2011, published 2013).

Legend:
GRP-78 [1] = biological target: T1, GRP-78 (Homo sapiens, UniProt P11021); assay: ELISA analysis of phage affinity to GRP-78; assay type: binding; conditions: Maxisorb 96-well plate coated with GRP-78; CPS minus background without GRP-78; serially diluted phages
T1 sequence (P11021 19-654, species assumed): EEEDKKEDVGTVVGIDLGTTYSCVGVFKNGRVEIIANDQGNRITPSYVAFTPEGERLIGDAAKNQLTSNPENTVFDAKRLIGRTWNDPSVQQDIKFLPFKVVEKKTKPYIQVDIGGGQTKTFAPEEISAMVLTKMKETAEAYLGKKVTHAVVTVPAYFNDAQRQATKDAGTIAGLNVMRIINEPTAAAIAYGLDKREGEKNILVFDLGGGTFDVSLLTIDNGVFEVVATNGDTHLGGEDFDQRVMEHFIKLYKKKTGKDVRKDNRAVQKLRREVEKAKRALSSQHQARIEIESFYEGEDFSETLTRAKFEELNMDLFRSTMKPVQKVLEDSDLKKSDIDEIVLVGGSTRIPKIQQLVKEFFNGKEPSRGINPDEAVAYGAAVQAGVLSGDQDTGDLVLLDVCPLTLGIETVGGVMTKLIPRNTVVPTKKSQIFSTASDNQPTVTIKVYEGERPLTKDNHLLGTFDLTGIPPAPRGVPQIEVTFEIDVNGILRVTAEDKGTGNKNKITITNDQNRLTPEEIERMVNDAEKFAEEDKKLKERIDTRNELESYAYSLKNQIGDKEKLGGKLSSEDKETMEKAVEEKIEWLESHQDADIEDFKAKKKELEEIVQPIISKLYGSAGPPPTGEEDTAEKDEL
Experimental: (g) In the end, enzyme-linked immunosorbent assay (ELISA) analysis is processed with the phages 11 to obtain high-affinity amino acid sequences of peptides.
In FIG. 2, after three times of the panning process, luminescent antibodies 12 (HRP-conjugated M13-phage g8p monoclone antibody) against the phages 11 are added to be washed with the TBST buffer having 0.5% Tween-20. At last, an enhanced chemiluminescence (ECL) substrate is added for developing.
Please further refer to FIG. 4 and FIG. 5, which are a view showing a calculating process and a result of an ELISA analysis. As shown in the figures, the four sequences selected from the five sequences are numbered as phage#01, phage#03, phage#13 and phage#15 for comparing their affinities to GRP-78. An ELISA analysis is processed after values of densities of the phages are deducted by background values at the same densities. In FIG. 3, Maxisorb 96-well plate is used. Row 11 and row 12 are not used. A1˜A10, C1˜C10, E1˜E10 and G1˜G10 are coated with GRP-78. 80 wells of A1˜A10, B1˜B10, C1˜C10, D1˜D10, E1˜E10, F1˜F10, G1˜G10, H1˜H10 and […] along with 40 clean wells are all blocked. On diluting the phages, the plate containing the 80 blocked wells along with the 40 blocked clean wells is used. The first to the tenth wells in each row contain phages sequentially diluted. […] A number of counts per second (CPS) is obtained by using an ELISA reader. […]

GRP-78 [2] = biological target: T1, GRP-78; assay: Phage display panning against GRP-78 with DNA sequencing of picked phages; assay type: binding; conditions: 24 independent phages picked after panning
Description: (a) A desired target protein 10 is fixed at bottom of a container added with selected phages 11 from phage display library.
(b) Each phage 11 is bound to the target protein 10 by using amino acid sequences contained in the phage 11.
(c) A TBST buffer having 0.1% Tween-20 is obtained for processing washing. By using Tween-20 as a surfactant, unspecific bindings are destroyed.
(d) The phages 11 which are bound to the target protein 10 are eluted under a weak acid status to be collected.
(e) after amplifying the collected phages 11 bound to the target protein 10, a panning process of binding, washing and eluting as in step (b) to step (d) is run for two times. For better screening efficiency, a density of Tween-20 is increased after each time of the panning process. It is because that the unspecific bindings are not destroyed with a too low density of Tween-20; yet a too high density of Tween-20 not only destroys the specific bindings between the phages 11 and the target protein 10 but also destroys integrities of proteins in the phages 11.
(f) Then, a quantification process is run with the screened phages 11 for estimating screening efficiency. DNA sequencing is then processed with the phages 11 to obtain actual sequences of 7 amino acids deposed on g3 protein (g3p). […]

affinity / binding force to GRP-78 (ELISA curve, pure CPS vs phage density) (GRP-78 [1])	occurrence of the sequence among picked phages (GRP-78 [2])	Substance
strong binding forces	–	KCCY
–	very few occurrences	KLWVIPQ [ruled out for later analysis]
–	very few occurrences	YSLRMDF
strong binding forces	–	KVW
